Source: article PMC4139204, “Insight into the Architecture of the NuRD Complex” (The Journal of Biological Chemistry, 2014)
Entries after “also recorded” stand apart in the source; their conditions may differ. One block for each compound: values may come before it.

Key:
RbAp48 [1] = target: T1, RbAp48 (Homo sapiens, UniProt Q09028); assay: GST pulldown of in vitro translated 35S-RbAp48 by GST-MTA1 fragments; assay type: binding; conditions: GST-MTA1 fusion on glutathione-Sepharose beads with in vitro translated 35S-labeled RbAp48, 2 h, 4 °C; SDS-PAGE and autoradiography
T1 construct: made in house; host or cells: insect cells
T1 sequence (Q09028 whole entry, the tested form may be a part): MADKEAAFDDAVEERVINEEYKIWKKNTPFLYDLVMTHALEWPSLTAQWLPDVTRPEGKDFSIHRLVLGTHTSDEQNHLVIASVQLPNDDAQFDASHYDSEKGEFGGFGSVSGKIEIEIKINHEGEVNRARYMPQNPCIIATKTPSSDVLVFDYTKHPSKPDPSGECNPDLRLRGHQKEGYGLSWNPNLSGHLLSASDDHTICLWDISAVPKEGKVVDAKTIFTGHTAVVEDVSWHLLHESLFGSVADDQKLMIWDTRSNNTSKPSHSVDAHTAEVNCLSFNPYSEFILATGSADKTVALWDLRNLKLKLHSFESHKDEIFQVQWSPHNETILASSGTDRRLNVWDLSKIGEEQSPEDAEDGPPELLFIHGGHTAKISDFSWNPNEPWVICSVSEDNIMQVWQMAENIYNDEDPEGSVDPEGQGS
Text: FLAG-tagged human RbAp48 (Uniprot: Q09028) was constructed by PCR and cloned into pcDNA3. MTA1 constructs (residues 1–250, 230–550, and 530–715) were generated by PCR amplification of the human gene (Uniprot: Q13330) and cloned into pcDNA3. MTA1 constructs (residues 530–635, 625–715, 643–695, and 656–686) were created by PCR amplification from codon-optimized sequences for bacterial expression (GenScript) and cloned into pGEX-6P with an N-terminal GST tag.
pcDNA3 constructs were expressed in vitro in the presence of [^35S]methionine. GST-MTA1 constructs were expressed in the BL21 strain of Escherichia coli and induced with 0.4 mM isopropyl 1-thio-β-D-galactopyranoside. The culture was incubated with shaking at 25 °C overnight, and the protein was subsequently purified by glutathione affinity chromatography. GST-H4-(1–48) was expressed and purified by glutathione affinity chromatography as described previously ([16]). Recombinant RbAp48 was expressed and purified from insect cells as described previously ([17]).
GST pulldown assays were performed by incubating equal amounts of GST or GST-MTA1 fusion proteins immobilized on glutathione-Sepharose beads (Amersham Biosciences) with in vitro translated ^35S-labeled RbAp48. The mixtures were incubated for 2 h at 4 °C and washed 5 times with binding buffer. Complexes were resolved by SDS-PAGE and visualized by autoradiography.

RbAp48 [2] = target: T1, RbAp48; assay: Isothermal titration calorimetry (ITC) of MTA1 peptides binding to RbAp48; conditions: MicroCal iTC200, 25 °C, 20 mM Tris, pH 7.5, 150 mM NaCl, MTA1 peptide (250 μM) titrated into RbAp48 (25 μM, 200 μl), 20 injections of 2 μl, single-site 1:1 fit, representative measurement, standard error from single curve fit, each titration in duplicate, read-out: dissociation constant (KD)
Method: pcDNA3 constructs were expressed in vitro in the presence of [^35S]methionine. […] GST-H4-(1–48) was expressed and purified by glutathione affinity chromatography as described previously ([16]). Recombinant RbAp48 was expressed and purified from insect cells as described previously ([17]).
ITC measurements were carried out at 25 °C using a MicroCal iTC200 titration calorimeter. […] The reference power was set to 2 μcal/s, and the cell was stirred continuously at 1000 rpm. The evolved heats were integrated and normalized for protein concentration.

MTA1-RbAp48 complex [3] = assay: Competition pulldown: FOG1-(1–15) peptide added to MTA1-FLAG-RbAp48 complex; assay type: binding, human; conditions: FLAG-RbAp48 on anti-FLAG beads; for effect of FOG1 peptide on MTA1-RbAp48 interaction: increasing amounts of FOG1-(1–15) peptide
Method: RbAp48 and MTA1 constructs were in vitro translated in the presence of ^35S-labeled methionine using the TNT Quick Coupled Transcription/Translation kit (Promega) according to the manufacturer's instructions. In vitro translated ^35S-labeled FLAG-RbAp48 (20 μl) was immobilized onto agarose beads conjugated to anti-FLAG (M2) antibodies (Sigma) in binding buffer (50 mM Tris, pH 7.5, 300 mM NaCl, 0.5% Triton X-100, complete protease inhibitor mixture tablet (Roche Applied Science), and 1 mM DTT). The mixture was incubated with in vitro translated ^35S-labeled-MTA1 fragments (40 μl) at 4 °C for 2 h. The beads were then washed five times with binding buffer. Anti-FLAG beads alone were used as a negative control. Complexes were resolved by SDS-PAGE and visualized by autoradiography.
(§1) The structural data provide clear evidence that histone H4 and MTA1 bind mutually exclusively to RbAp48. […] Competition-binding experiments were performed to assess whether full-length MTA1 might inhibit the interaction of RbAp48 with H3 or FOG1 peptides and to confirm that H4 and MTA1 bind mutually exclusively to RbAp48. GST-H4-(1–48) was expressed in bacteria, immobilized onto glutathione beads, and used to pull down RbAp48 in the absence and presence of full-length MTA1 (Fig. 7A). In a complementary experiment (Fig. 7B), in vitro translated FLAG-RbAp48 was immobilized on anti-FLAG beads and used to pull down MTA1 in the absence and presence of histone H4-(1–48).
(§2) FIGURE 7. […] A, pulldown showing the binding of in vitro translated ^35S-labeled RbAp48 to GST-histone H4-(1–48) (immobilized on glutathione beads) in the absence and presence of in vitro translated MTA1. B, pulldown showing the binding of in vitro translated ^35S-labeled MTA1 to FLAG-RbAp48 (immobilized on anti-FLAG beads) in the absence and presence of histone H4-(1–48). C, pulldown assays showing the effect of adding increasing amounts of FOG1-(1–15) peptide to a complex formed between in vitro translated ^35S-labeled FLAG-RbAp48 (immobilized on anti-FLAG beads) and in vitro translated ^35S-labeled full-length MTA1 or MTA1-(530–715). […]

RbAp46/48 = conditions: GST pulldown; ref [47]; cited from earlier work
Text: Previous studies using GST pulldown assays have mapped the domains that mediate the interaction between MTA1/2 and RbAp46/48. […] Our crystallographic and biochemical data reveal that a short motif near the C-terminal end of MTA1 is able to bind ind ...

[4] = system: RbAp46 mutant (E356Q, D357N, E359Q, D360N, L30Y); conditions: D360N and L30Y; cited from earlier work
MTA1-RbAp48 complex [5] = assay: Competition pulldown: FLAG-RbAp48 pulls down MTA1 in absence and presence of histone H4-(1–48); assay type: binding, human; conditions: FLAG-RbAp48 on anti-FLAG beads, in vitro translated 35S-labeled MTA1, absence and presence of histone H4-(1–48)
Method: as §1, §2

RbAp46 = conditions: for RbAp46; ref [16]; cited from earlier work

Compound: CC[C@H](C)[C@H](NC(=O)[C@H](CCCCN)NC(=O)[C@H](CCCNC(=N)N)NC(=O)[C@@H](NC(=O)[C@H](CCC(=O)O)NC(=O)[C@H](CCC(=O)O)NC(=O)[C@@H](NC(=O)[C@H](C)NC(=O)[C@H](CCSC)NC(=O)[C@H](Cc1ccc(O)cc1)NC(=O)[C@H](Cc1ccccc1)NC(=O)[C@@H](NC(=O)[C@H](CC(=O)O)NC(C)=O)C(C)C)[C@@H](C)O)[C@@H](C)O)C(=O)N[C@@H](CCCNC(=N)N)C(=O)N[C@@H](CCCCN)C(=O)N[C@@H](CC(C)C)C(=O)N[C@@H](CC(C)C)C(=O)N[C@@H](CO)C(=O)N[C@@H](CO)C(=O)N[C@@H](CO)C(=O)N[C@@H](CCC(=O)O)C(=O)N[C@H](C(=O)N[C@@H](CCCCN)C(=O)N[C@@H](CCCNC(=N)N)C(=O)N[C@@H](C)C(=O)N[C@@H](C)C(=O)N[C@@H](CCCNC(=N)N)C(=O)N[C@@H](CCCNC(=N)N)C(=O)N1CCC[C@H]1C(=O)N[C@@H](Cc1ccc(O)cc1)C(=O)N[C@@H](CCCCN)C(N)=O)[C@@H](C)O [MTA1-(656–686)]
- binding to RbAp48 in GST pulldown (RbAp48 [1]): sufficient to bind RbAp48; also recorded: shortest fragment of MTA1 capable of pulling down in vitro translated RbAp48

- Kd (RbAp48 [2]): 0.05 ± 0.007 µM
Compound: Ac-KLLSSSETKRAARRPYKPIALRQSQA-NH2 [MTA1-(670–695)]

- competition for binding to RbAp48 (Fig. 7 title) (MTA1-RbAp48 complex [3]; Fig. 7, full-length MTA1 or MTA1-(530–715)): do not compete for binding to RbAp48
Compound: FOG1-(1–15): peptide (residues 1–15) derived from the co-regulator FOG1
- effect of FOG1 peptide on MTA1-RbAp48 interaction (MTA1-RbAp48 complex [3]; C-terminal MTA1 fragment (residues 530–715)): The same result was observed
- effect of FOG1 peptide on MTA1-RbAp48 interaction (MTA1-RbAp48 complex [3]; full-length MTA1): unable to interfere with the MTA1-RbAp48 interaction

Compound: GATA-type zinc finger domain of MTA1 (residues 392–448): predicted GATA-type zinc finger domain of MTA1 (ACESCYTTQSYQWYSWGPPNMQCRLCASCWTYWKKYGGLKMPTRLDGERPGPNRSNM; GATA-type zinc finger; UniProt Q13330 392-448, looked up, fragment)
- recognition of RbAp46/48 (RbAp46/48): sufficient to recognize RbAp46/48

Compound: GST-tagged H4 (residues 1–48): GST-H4-(1–48) expressed in bacteria and purified by glutathione affinity chromatography
- effect of RbAp46 mutations on interaction with H4 [4]: abrogate its interaction

Compound: H4-(1–48): histone H4 residues 1–48
- competition of histone H4 with MTA1 for RbAp48 (MTA1-RbAp48 complex [5]): compete for the same binding surface on RbAp48
- Kd (RbAp46): 1 µM
